Source: patent EP0361977A2, “Peptides having T cell suppressor activity” (IMM[…] INSTITUTE, INC., priority 1988, dated 1990)
Where a SMILES comes first, the peptide text is derived from it. The star is where a group is joined. βNA = c1ccc2cc(N*)ccc2c1; NHcHex = C1CCC(N*)CC1; NHPh = c1ccc(N*)cc1; X1 = c1ccc(NN*)cc1; NHiPr = CC(C)N*; For = O=C*

Experiments:
[1] = test system: CEM cells; experiment: Cyclic GMP assay in CEM cells; type: cell-based, human; settings: for T cell suppressor activity: thymopentin-like activity, cyclic GMP assays on CEM cells; for induction of intracellular cyclic GMP (active / inactive peptides): CEM cells, dose-response curves from 1 to 1000 micrograms/ml, Fig. 1, composite of 6 experiments, compared with thymopentin
Description: This assay measures the ability of a peptide of this invention to bind to the cell membrane receptor of the intact CEM cell and selectively stimulate production of cyclic GMP, as does human thymopentin.
The CEM cell line was obtained from the American Type Culture Collection of Rockville, Md. CEM cells were freshly seeded and grown for 3 days with harvesting as described in T. Audhya et al, Arch. Biochem Biophys., 234: 167-177 (1984). The cells were washed 3 times in PBS and resuspended in RPMI 1640 at a concentration of 1.0 x 10⁷ cells/ml and were allowed to equilibrate at 37°C for 30 minutes before the addition of the test peptides (25 ul) and control peptides. The incubation was allowed to proceed in a shaking water bath for 4-5 minutes and was then terminated by addition of 1 ml ice-cold TCA (10 percent).
The cells in TCA were homogenized and sonicated to release cyclic nucleotide. The suspension was centrifuged at 3000 x g for 20 minutes at 4°C. The resulting precipitate was dissolved in 0.1 N NaOH to determine the protein content. TCA was removed from the supernatant fraction by extracting 4 times with 5 ml of water-saturated ET₂O. After the final extraction, the remaining traces of ether were removed by heating for 10 minutes in a 50°C water bath. After lyophilization the sample was reconstituted in 50 mM acetate buffer (pH 6.2) for radioimmunoassay of cyclic GMP.
For example, dose-response curves from 1 to 1000 micrograms/ml of peptide, were evaluated for each compound. […] A threshold activity was determined for each peptide tested. This is defined as the lowest concentration of the test peptide which induced an intracellular level of cyclic GMP greater than two standard deviations above the control. The controls had intracellular cyclic GMP values of less than 0.9 picomoles/ml (mean±standard deviation). Test results were considered positive if the level of cyclic GMP was greater than 2 times that determined for the parallel negative control. Active peptides had activity thresholds ranging from […].

[2] = test system: MOLT-4 cells; experiment: T cell helper activity, MOLT-4 T cell line (intracellular cGMP); type: cell-based, human; settings: thymopentin-like; assay not described for these peptides
[3] = test system: helper T cell activity; settings: mice; cited from earlier work

Row | Molecule | T cell suppressor activity [1] | induction of intracellular cyclic GMP (active / inactive peptides) [1] | T cell helper activity [2] | helper T cell activity in vivo [3]
1 | CCNC(=O)[C@@H](NC(=O)[C@H](CCC(=O)O)NC(=O)[C@@H]1CCCN1C(=O)[C@H](CCCNC(=N)N)NC(C)=O)C(C)C [Acetyl-Arg-Pro-Glu-Val-Ethylamide, reference compound] (Ac-RPEV-NHEt) | do not display T cell suppressor stimulatory activity of thymopentin | – | – | –
2 | CC(C)[C@H](NC(=O)[C@H](CC(=O)O)NC(=O)[C@H](CCCCN)NC(=O)[C@@H](N)CCCNC(=N)N)C(=O)Nc1ccc2ccccc2c1 [Arg-Lys-Asp-Val-2-Naphthylamide, reference compound] (H-RKDV-βNA) | do not display T cell suppressor stimulatory activity of thymopentin | inactive | – | –
3 | CC(C)[C@H](NC(=O)[C@H](CC(=O)O)NC(=O)[C@H](CCCCN)NC(=O)[C@@H](N)CCCNC(=N)N)C(=O)Nc1ccccc1 [Arg-Lys-Asp-Val-Anilineamide] (H-RKDV-NHPh) | – | active | – | –
4 | CC(C)[C@H](NC(=O)[C@H](CC(=O)O)NC(=O)[C@H](CCCCN)NC(=O)[C@@H](N)CCCNC(=N)N)C(=O)NC1CCCCC1 [Arg-Lys-Asp-Val-Cyclohexylamide] (H-RKDV-NHcHex) | – | active | – | –
5 | CC(C)NC(=O)[C@@H](NC(=O)[C@H](CC(=O)O)NC(=O)[C@H](CCCCN)NC(=O)[C@@H](N)CCCNC(=N)N)C(C)C [Arg-Lys-Asp-Val-Isopropylamide, Arg-Lys-Asp-Val-2-propylamide] (H-RKDV-NHiPr) | display both T cell suppressor and helper activities like thymopentin | – | display both T cell suppressor and helper activities like thymopentin | –
6 | CC(C)[C@H](NC(=O)[C@H](CC(=O)O)NC(=O)[C@H](CCCCN)NC(=O)[C@@H](N)CCCNC(=N)N)C(=O)NNc1ccccc1 [Arg-Lys-Asp-Val-Phenylhydrazide, Arg-Lys-Asp-Val-2-Phenylhydrazide] (H-RKDV-X1) | – | active | – | –
7 | CC(C)NC(=O)[C@@H](NC(=O)[C@H](CC(=O)O)NC(=O)[C@@H]1CCCN1C(=O)[C@@H](N)CCCNC(=N)N)C(C)C [Arg-Pro-Asp-Val-Isopropylamide] (H-RPDV-NHiPr) | display both T cell suppressor and helper activities like thymopentin | active | display both T cell suppressor and helper activities like thymopentin | –
8 | CNC(=O)[C@@H](NC(=O)[C@H](CC(=O)O)NC(=O)[C@@H]1CCCN1C(=O)[C@H](CCCNC(=N)N)NC=O)C(C)C [Formyl-Arg-Pro-Asp-Val-Methylamide, N-formyl-Arg-Pro-Asp-Val-Methylamide] (For-RPDV-NHMe) | display both T cell suppressor and helper activities like thymopentin | – | display both T cell suppressor and helper activities like thymopentin | –
9 | Arg-Lys-Asp-Val-Dimethylamide [reference compound] | do not display T cell suppressor stimulatory activity of thymopentin | inactive | – | –
10 | Arg-Lys-Asp-Val-Piperidineamide | – | active | – | –
11 | Arg-Lys-Glu-Val-Tyr [SP-5] | – | – | – | stimulates helper T cell activity in vivo in mice
12 | Arg-Pro-Asp-Val-Morpholinoamide [reference compound] | do not display T cell suppressor stimulatory activity of thymopentin | – | – | –
